# Test results from PubChem BioAssay (NCI).
#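 In this assay, cells in 96-well plates receive the compound at five concentrations for 48 hours. Endpoints are linearly interpolated between the surrounding concentrations. At the TGI there is no net growth.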
# Assays:
# Assay in all cases: NCI anticancer screen, dose series, 48 h
# IGROV1 ovarian = tested on: IGROV1 ovarian
# NCI/ADR-RES ovarian = tested on: NCI/ADR-RES ovarian
# SK-MEL-28 melanoma = tested on: SK-MEL-28 melanoma
# BT-549 breast = tested on: BT-549 breast
# SF-539 CNS = tested on: SF-539 CNS
# U251 CNS = tested on: U251 CNS
# UACC-62 melanoma = tested on: UACC-62 melanoma
# TK-10 renal = tested on: TK-10 renal
# OVCAR-3 ovarian = tested on: OVCAR-3 ovarian
# MDA-MB-435 = tested on: MDA-MB-435
# MCF7 breast = tested on: MCF7 breast
# NCI-H23 lung = tested on: NCI-H23 lung
# T-47D breast = tested on: T-47D breast
# SNB-75 CNS = tested on: SNB-75 CNS
# MDA-MB-231 breast = tested on: MDA-MB-231 breast
# SN12C renal = tested on: SN12C renal
# NCI-H226 lung = tested on: NCI-H226 lung
# OVCAR-8 ovarian = tested on: OVCAR-8 ovarian
# OVCAR-4 ovarian = tested on: OVCAR-4 ovarian
# A498 renal = tested on: A498 renal
SMILES,TGI (IGROV1 ovarian),TGI (NCI/ADR-RES ovarian),TGI (SK-MEL-28 melanoma),TGI (BT-549 breast),TGI (SF-539 CNS),TGI (U251 CNS),TGI (UACC-62 melanoma),TGI (TK-10 renal),TGI (OVCAR-3 ovarian),TGI (MDA-MB-435),TGI (MCF7 breast),TGI (NCI-H23 lung),TGI (T-47D breast),TGI (SNB-75 CNS),TGI (MDA-MB-231 breast),TGI (SN12C renal),TGI (NCI-H226 lung),TGI (OVCAR-8 ovarian),TGI (OVCAR-4 ovarian),TGI (A498 renal)
C#CCn1c(=O)c(C)cn(/C(=C/C(=O)OCC)C(=O)OCC)c1=O,13 µM,10.6 µM,19.7 µM,20.4 µM,4.77 µM,25.2 µM,24.8 µM,4.29 µM,19.6 µM,20.5 µM,13.7 µM,23.4 µM,20.3 µM,28.8 µM,36.3 µM,26.2 µM,4.9 µM,5.56 µM,19.3 µM,31.5 µM
C[C@@]12C[C@@H](c3ccccc3O1)N1CCSC1=N2,> 100 µM,> 100 µM,> 100 µM,> 100 µM,> 100 µM,> 100 µM,> 100 µM,> 100 µM,> 100 µM,> 100 µM,> 100 µM,> 100 µM,> 100 µM,> 100 µM,> 100 µM,> 100 µM,> 100 µM,> 100 µM,> 100 µM,> 100 µM
Cc1nc2ccc(N=Nc3c(O)ccc4ccccc34)cc2[nH]1,> 67 µM,60.2 µM,> 100 µM,59.7 µM,> 62.3 µM,> 67.9 µM,> 63.4 µM,> 100 µM,> 56.2 µM,45.9 µM,44.9 µM,> 100 µM,41 µM,> 100 µM,53.6 µM,> 74.9 µM,> 100 µM,69.6 µM,35.1 µM,> 92.7 µM
CC(=O)OCC1OC(O[C@@H]2C[C@H]3C(C)(C)[C@H](OC(C)=O)CC[C@]3(C)[C@H]3CC[C@@]45C[C@H](O)C[C@H](C)[C@@H]4CC=C5[C@@]32C)C(O)C(O)C1O (stereo not given in full),9.33 µM,32.9 µM,19.4 µM,12.7 µM,19.2 µM,10.3 µM,16.6 µM,21.4 µM,10.6 µM,11.2 µM,11 µM,18.3 µM,13.7 µM,10.9 µM,11.6 µM,15.5 µM,16.1 µM,17.4 µM,16.4 µM,15.8 µM
Cc1cc(C)c2c(=O)n(CN3CCN(c4ccccc4)CC3)sc2n1,> 100 µM,52.7 µM,> 100 µM,> 100 µM,37.5 µM,56.2 µM,> 100 µM,> 100 µM,99.6 µM,> 100 µM,> 100 µM,85.2 µM,33.8 µM,42.7 µM,39.5 µM,87 µM,> 100 µM,> 100 µM,> 100 µM,> 100 µM
C/C(=N\N=C(\N)OB(F)F)c1ccccn1,> 100 µM,> 100 µM,> 100 µM,> 100 µM,> 100 µM,> 100 µM,> 100 µM,> 100 µM,> 100 µM,> 100 µM,> 100 µM,> 100 µM,> 100 µM,55.7 µM,> 100 µM,> 100 µM,> 100 µM,> 100 µM,> 100 µM,> 100 µM
CSc1c(C#N)c(O)n(-c2ccc(Cl)cc2)c(=O)c1C#N,> 100 µM,> 100 µM,> 100 µM,> 100 µM,> 100 µM,> 100 µM,> 100 µM,> 100 µM,> 100 µM,> 100 µM,> 100 µM,> 100 µM,> 100 µM,> 100 µM,> 100 µM,> 100 µM,> 100 µM,> 100 µM,> 100 µM,> 100 µM
C/C=C1/CN2CCC34C5=CC(=O)C(c6cc7c(cc6OC)N(C)C6=C(C(=O)OC)CC8(CC)CCCN9CCC67C98)=CC5=NC23CCC1C4C(=O)OC (stereo not given),31.9 µM,54.3 µM,31 µM,29.7 µM,28 µM,28.6 µM,31.1 µM,30.9 µM,27.4 µM,26 µM,22.8 µM,28.2 µM,29 µM,21.6 µM,23.5 µM,27.7 µM,39 µM,30.2 µM,27.1 µM,30.2 µM
Nc1sccc1S(=O)(=O)c1ccsc1N,> 100 µM,> 100 µM,> 100 µM,> 100 µM,> 100 µM,> 100 µM,> 100 µM,> 100 µM,> 100 µM,> 100 µM,> 100 µM,> 100 µM,> 100 µM,> 100 µM,> 100 µM,> 100 µM,> 100 µM,> 100 µM,> 100 µM,> 100 µM
CCOC(=O)N/N=C/C1=NN(C(=O)OCC)S(=O)C1C (stereo not given),> 100 µM,> 100 µM,> 100 µM,> 100 µM,> 100 µM,> 100 µM,> 100 µM,> 100 µM,> 100 µM,> 100 µM,> 100 µM,> 100 µM,> 100 µM,> 100 µM,> 100 µM,> 100 µM,> 100 µM,> 100 µM,> 100 µM,> 100 µM
C/C=C/C=C/C1=NN(c2cccc(S(=O)(=O)O)c2)C2(C1)C(Cl)C(=O)N2c1nc2ccccc2s1 (stereo not given),25.4 µM,> 82.7 µM,43.6 µM,34 µM,27.8 µM,23.8 µM,26.2 µM,27.8 µM,24.7 µM,26.6 µM,27 µM,32.1 µM,21.3 µM,25.9 µM,28.9 µM,32.1 µM,32 µM,> 54.8 µM,29.2 µM,31.8 µM
O=[N+]([O-])c1nccn1CCCN=c1c2ccccc2n(O)c2ccccc12,> 100 µM,> 100 µM,> 100 µM,> 100 µM,> 100 µM,> 100 µM,> 100 µM,> 100 µM,> 100 µM,> 100 µM,> 100 µM,> 100 µM,> 100 µM,> 100 µM,> 100 µM,> 100 µM,> 100 µM,> 100 µM,> 100 µM,> 100 µM
CCOC(=O)c1c(Nc2ccccc2)sc2cccnc12,47.4 µM,67.8 µM,63 µM,58.8 µM,23.6 µM,> 57.9 µM,45.3 µM,86.1 µM,48.7 µM,54.6 µM,59.5 µM,67.2 µM,> 100 µM,59.3 µM,> 83.5 µM,45 µM,57.1 µM,64 µM,79.9 µM,26.2 µM
CCN(CC)CC(O)CNc1ccc(NCC(O)CCl)c2c1C(=O)c1ccccc1C2=O (stereo not given),25.5 µM,17.3 µM,25.4 µM,23.5 µM,19.1 µM,28 µM,29.2 µM,25.5 µM,19.3 µM,18.6 µM,15.3 µM,18.1 µM,38.7 µM,24.9 µM,27.8 µM,19.7 µM,25 µM,20.6 µM,16.1 µM,21 µM
COC(=O)/C=C1/OC(c2ccc(Br)cc2)=C(Br)C1=O,17 µM,32.9 µM,27.2 µM,11.7 µM,12.7 µM,6.88 µM,20.5 µM,17.6 µM,9.71 µM,20.9 µM,25.5 µM,17.1 µM,15.1 µM,17.5 µM,8.17 µM,17.6 µM,34.7 µM,10.5 µM,11.6 µM,30.4 µM
O=C(O)c1cnccc1-c1cc(=O)[nH]n1-c1ccccc1,> 100 µM,> 100 µM,> 78.2 µM,> 100 µM,> 71.2 µM,> 100 µM,> 100 µM,> 100 µM,> 100 µM,> 100 µM,> 100 µM,> 100 µM,> 100 µM,> 100 µM,> 100 µM,> 100 µM,> 100 µM,> 100 µM,> 100 µM,> 100 µM
C/C(=N/NC(=S)N1CCCCCC1)c1ccccc1O,> 39.7 µM,8.35 µM,> 100 µM,> 100 µM,28.5 µM,> 100 µM,17.7 µM,> 100 µM,> 40.9 µM,> 100 µM,> 100 µM,> 100 µM,> 33.6 µM,69.1 µM,> 66.8 µM,40.9 µM,> 59.5 µM,> 100 µM,> 33.9 µM,> 74 µM
COc1ccc(-c2cn3c(nc4ccccc43)c(C)n2)cc1,> 100 µM,> 100 µM,> 100 µM,> 100 µM,> 100 µM,> 100 µM,> 91.5 µM,> 100 µM,> 100 µM,> 100 µM,> 100 µM,> 100 µM,> 67.3 µM,> 86.1 µM,> 100 µM,> 100 µM,> 100 µM,> 96.6 µM,> 100 µM,> 100 µM
